Laboratory results as given in patent US10780184B2, “Fluorescent solid lipid nanoparticles composition and preparation thereof” (BRACCO IMAGING S.P.A., priority 2013, dated 2020).

Assays:
[1] = Photobleaching experiment, 785 nm laser radiation; format: physicochemical; settings: aqueous medium, 37° C., 3 sec irradiation/1 sec dark repeated for 1 h
Protocol: A further advantage of the present invention is the improved photostability of the dye with respect to the free dye in water solution. An experiment was performed in aqueous medium by the exposition of free ICG solution and the ICG loaded SLNs suspension to a 785 nm laser radiation (see FIG. 2, Example 8). The fluorescence emissions were collected by NIR fluorescent imaging system (Pearl® Impulse system by LI-COR Biosciences). […] Then, the experiment was carried out in duplicate at 37° C. irradiating both samples for 3 sec and keeping the samples in the dark for 1 sec. This sequence was repeated in continuous for 1 h.
The photobleaching experiment was performed by the exposition of free ICG aqueous solution and the ICG loaded SLNs suspension to a 785 nm laser radiation The fluorescence emissions were collected by NIR fluorescent imaging system (Pearl Impulse system by LI-COR Biosciences).
Then, the experiment was carried out in duplicate at 37° C. irradiating both samples for 3 sec and keeping the samples in the dark for 1 sec. This sequence was repeated in continuous for 1 h.

[2] = UV-Vis spectra for J-aggregates evaluation; format: physicochemical; settings: SLNs suspension up to 120 days, free ICG in aqueous solution up to 15 days
Protocol: In FIG. 4 (panel A, Example 7) there are reported the UV-Vis spectra of ICG-loaded SLNs suspension just after the formulation date and 90 and 120 days later. […] The absorbance at 800 nm is recovered at 96% with respect to the initial value. In addition, the fluorescence emission properties can be preserved by the incorporation of ICG in the SLNs over the observed period of time (data not shown).
UV-Vis spectra of ICG-loaded SLNs suspension, prepared as described in the example 4, were recorded after the end of the formulation date, 90 and 120 days later keeping the suspension at store condition. After 120 days the absorbance was recovered at 96% with respect to the initial value (FIG. 4 A).
A solution of ICG (0.14 mg/mL) was prepared in glucosate (5.5%) solution. The sample was diluted before the Uv-Vis analysis and the absorption behaviour was evaluated from 300 to 950 nm until 15 days (FIG. 4 B).

[3] = Optical properties (absorption and emission maxima, Stokes' shift); format: physicochemical; settings: SLNs formulation (example 4) or H2O
From the text: Additional optical features (i.e. maximum absorption and emission wavelengths, Stokes' shifts) of ICG in aqueous medium and after incorporation in the SLNs are reported in Table E.

[4] = human recommended dose of 0.5 mg/kg, intravenous; cited from earlier work
[5] = tendency to aggregate; cited from earlier work

## CC1(C)C(/C=C/C=C/C=C/C=C2/N(CCCCS(=O)(=O)[O-])c3ccc4ccccc4c3C2(C)C)=[N+](CCCCS(=O)(=O)[O-])c2ccc3ccccc3c21.[Na+] [ICG, Indocyanine Green]
[1]
  fluorescence emission remaining, of the initial emission fluorescence efficiency: slightly above zero
[2]
  aggregates (J-aggregates) formation: can aggregate in few days
[3]
  A max wavelength (nm): 780 nm
  Fluor. Emission λmax (nm): 809 nm
  Stokes' shift: 29
[4]
  blood half-time: around 3.0 minutes
[5]
  time within which aqueous solution must be used: ≤ 6 h
